The text below walks through data of US8796256B2 (Janssen Pharmaceutica NV, priority 2010, dated 2014).

This assay addresses T1, ERR1 (also known as ERR-α or ERR-1) (Homo sapiens, UniProt P11474).
T1 sequence (P11474 193-421 limits assumed): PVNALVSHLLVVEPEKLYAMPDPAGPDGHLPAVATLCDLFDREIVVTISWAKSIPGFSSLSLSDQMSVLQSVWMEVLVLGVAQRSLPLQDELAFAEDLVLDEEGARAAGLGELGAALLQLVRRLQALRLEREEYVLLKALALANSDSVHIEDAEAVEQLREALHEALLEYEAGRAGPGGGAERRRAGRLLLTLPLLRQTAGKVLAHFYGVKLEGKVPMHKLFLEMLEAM
The experiment in a line: TR-FRET assay (disruption of co-activator peptide binding to ERR1 LBD). Type of assay: biochemical. The following applies: 6 nM 6His-ERR1LBD, 6 nM GST-SRC-2 peptide; average of 3 independent experiments. An outline of the steps:
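Homogeneous TR-FRET measuring displacement of GST-hSRC2 co-activator peptide (6 nM) from His-tagged ERR1 LBD (6 nM), detected with α-GST Eu cryptate (30 nM) and α-His-XL665 (7.5 nM). Buffer 25 mM Tris pH 8, 2.5 mM Hepes, 20 mM KCl, 1 mM DTT, 0.05 mg/mL delipidated BSA; equilibration 4-18 h at 25° C. Hyperbolic dose-response fit, mean of 3 experiments.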
On the technique in general: TR-FRET usually uses a lanthanide donor and a delayed reading to cut background.
With `CS(=O)(=O)CCN1CCC[C@H]1CN1C(=O)S/C(=C\c2ccc3c(cnn3Cc3ccc(Cl)cc3C(F)(F)F)c2)C1=O` [Compound 159, (5Z)-5-({1-[4-Chloro-2-(trifluoromethyl)benzyl]-1H-indazol-5-yl}methylidene)-3-({(2S)-1-[2-(methylsulfonyl)ethyl]pyrrolidin-2-yl}methyl)-1,3-thiazolidine-2,4-dione], the concentration giving a half-maximal response (EC50) turned out to be 87 nM.

In the case of `CS(=O)(=O)NN1C(=O)S/C(=C\c2ccc3c(cnn3Cc3ccc(Br)cc3C(F)(F)F)c2)C1=O` [Compound 364, N-[(5Z)-5-({1-[4-Bromo-2-(trifluoromethyl)benzyl]-1H-indazol-5-yl}methylidene)-2,4-dioxo-1,3-thiazolidin-3-yl]methanesulfonamide], the EC50 was determined as 4 nM. As for `O=C(CN1C(=O)S/C(=C\c2ccc3c(c2)nnn3Cc2ccc(Cl)cc2C(F)(F)F)C1=O)NS(=O)(=O)N1CCCC1` [Compound 268, 2-[(5Z)-5-({1-[4-Chloro-2-(trifluoromethyl)benzyl]-1H-benzotriazol-5-yl}methylidene)-2,4-dioxo-1,3-thiazolidin-3-yl]-N-(pyrrolidin-1-ylsulfonyl)acetamide], the midpoint of the response, the EC50, lay at 46 nM. In the case of `O=C1S/C(=C\c2ccc3c(cnn3Cc3ccc(C(F)(F)F)cc3C(F)(F)F)c2)C(=O)N1[C@@H]1CNCC[C@@H]1F` (relative stereo) [Compound 200, (5Z)-5-({1-[2,4-Bis(trifluoromethyl)benzyl]-1H-indazol-5-yl}methylidene)-3-(cis-4-fluoropiperidin-3-yl)-1,3-thiazolidine-2,4-dione] it was 14 nM; in that of `CN(CCN1C(=O)S/C(=C\c2ccc3c(cnn3Cc3ccc(Cl)cc3C(F)(F)F)c2)C1=O)S(=O)(=O)c1ccc(C(F)(F)F)cc1` [Compound 395, N-{2-[(5Z)-5-({1-[4-Chloro-2-(trifluoromethyl)benzyl]-1H-indazol-5-yl}methylidene)-2,4-dioxo-1,3-thiazolidin-3-yl]ethyl}-N-methyl-4-(trifluoromethyl) benzenesulfonamide], 460 nM. To `O=C1S/C(=C\c2ccc3c(c2)nnn3Cc2ccc(Cl)cc2C(F)(F)F)C(=O)N1Cc1c[nH]nn1` [Compound 262, (5Z)-5-({1-[4-Chloro-2-(trifluoromethyl)benzyl]-1H-benzotriazol-5-yl}methylidene)-3-(1H-1,2,3-triazol-4-ylmethyl)-1,3-thiazolidine-2,4-dione] belongs 24 nM; to `CCOC(=O)C1CCC(N2C(=O)S/C(=C\c3ccc4c(c3)nnn4Cc3ccc(Cl)cc3C(F)(F)F)C2=O)CC1` (stereo not drawn) [Compound 261, Ethyl 4-[(5Z)-5-({1-[4-chloro-2-(trifluoromethyl)benzyl]-1H-benzotriazol-5-yl}methylidene)-2,4-dioxo-1,3-thiazolidin-3-yl]cyclohexanecarboxylate], 124 nM; to `O=C1S/C(=C\c2ccc3c(cnn3Cc3ccc(Cl)cc3C(F)(F)F)c2)C(=O)N1N1CCN(CCO)CC1` [Compound 354, (5Z)-5-({1-[4-Chloro-2-(trifluoromethyl)benzyl]-1H-indazol-5-yl}methylidene)-3-[4-(2-hydroxyethyl)piperazin-1-yl]-1,3-thiazolidine-2,4-dione], 17 nM. For the compound `CC(C)C[C@H](N)CN1C(=O)S/C(=C\c2ccc3c(cnn3Cc3ccc(Cl)cc3C(F)(F)F)c2)C1=O` [Compound 53, (5Z)-3-[(2S)-2-Amino-4-methylpentyl]-5-({1-[4-chloro-2-(trifluoromethyl)benzyl]-1H-indazol-5-yl}methylidene)-1,3-thiazolidine-2,4-dione], the EC50 is 39 nM. To `CC(C)(C)NS(=O)(=O)CN1C(=O)S/C(=C\c2ccc3c(cnn3Cc3ccc(Cl)cc3C(F)(F)F)c2)C1=O` [Compound 160, N-tert-Butyl-1-[(5Z)-5-({1-[4-chloro-2-(trifluoromethyl)benzyl]-1H-indazol-5-yl}methylidene)-2,4-dioxo-1,3-thiazolidin-3-yl]methanesulfonamide] belongs 77 nM; to `CN(CCO)CCN1C(=O)S/C(=C\c2ccc3c(cnn3Cc3ccc(Cl)cc3C(F)(F)F)c2)C1=O` [Compound 51, (5Z)-5-({1-[4-Chloro-2-(trifluoromethyl)benzyl]-1H-indazol-5-yl}methylidene)-3-{2-[(2-hydroxyethyl)(methyl)amino]ethyl}-1,3-thiazolidine-2,4-dione], 26 nM; to `O=C1S/C(=C\c2ccc3c(cnn3Cc3ccc(Cl)cc3C(F)(F)F)c2)C(=O)N1CCNc1ccc([N+](=O)[O-])cn1` [Compound 110, (5Z)-5-({1-[4-Chloro-2-(trifluoromethyl)benzyl]-1H-indazol-5-yl}methylidene)-3-{2-[(5-nitropyridin-2-yl)amino]ethyl}-1,3-thiazolidine-2,4-dione], 438 nM.

In turn, `CN1C[C@@H](N2C(=O)S/C(=C\c3ccc4c(cnn4Cc4ccc(Cl)cc4C(F)(F)F)c3)C2=O)[C@@H](F)C1` (relative stereo) [Compound 323, (5Z)-5-({1-[4-Chloro-2-(trifluoromethyl)benzyl]-1H-indazol-5-yl}methylidene)-3-[cis-4-fluoro-1-methylpyrrolidin-3-yl]-1,3-thiazolidine-2,4-dione] had an EC50 of 54 nM. `O=C1S/C(=C\c2ccc3c(cnn3Cc3ccc(Cl)cc3C(F)(F)F)c2)C(=O)N1CC1CNC1` [Compound 101, (5Z)-3-(Azetidin-3-ylmethyl)-5-({1-[4-chloro-2-(trifluoromethyl)benzyl]-1H-indazol-5-yl}methylidene)-1,3-thiazolidine-2,4-dione] displayed an EC50 of 68 nM. Take `O=C(NN1C(=O)S/C(=C\c2ccc3c(cnn3Cc3ccc(Cl)cc3C(F)(F)F)c2)C1=O)C1CC1` [Compound 373, N-[(5Z)-5-({1-[4-Chloro-2-(trifluoromethyl)benzyl]-1H-indazol-5-yl}methylidene)-2,4-dioxo-1,3-thiazolidin-3-yl]cyclopropanecarboxamide]: the EC50 stood at 7 nM. To `O=C1S/C(=C\c2ccc3c(cnn3Cc3ccc(Cl)cc3C(F)(F)F)c2)C(=O)N1Cc1cc(O)no1` [Compound 138, (5Z)-5-({1-[4-Chloro-2-(trifluoromethyl)benzyl]-1H-indazol-5-yl}methylidene)-3-[(3-hydroxyisoxazol-5-yl)methyl]-1,3-thiazolidine-2,4-dione] belongs 42 nM; to `O=C1S/C(=C\c2ccc3c(cnn3Cc3ccc(Cl)cc3C(F)(F)F)c2)C(=O)N1C1CCCNCC1` (stereo not drawn) [Compound 77, (5Z)-3-Azepan-4-yl-5-({1-[4-chloro-2-(trifluoromethyl)benzyl]-1H-indazol-5-yl}methylidene)-1,3-thiazolidine-2,4-dione], 28 nM. To `CS(=O)(=O)NN1C(=O)S/C(=C\c2ccc3c(c2)c(C#N)nn3Cc2ccc(C(F)(F)F)cc2C(F)(F)F)C1=O` [Compound 369, N-[(5Z)-5-({1-[2,4-Bis(trifluoromethyl)benzyl]-3-cyano-1H-indazol-5-yl}methylidene)-2,4-dioxo-1,3-thiazolidin-3-yl]methanesulfonamide] belongs 64 nM; to `O=C(O)C(C1CCNCC1)N1C(=O)S/C(=C\c2ccc3c(cnn3Cc3ccc(Cl)cc3C(F)(F)F)c2)C1=O` (stereo not drawn) [Compound 224, [(5Z)-5-({1-[4-Chloro-2-(trifluoromethyl)benzyl]-1H-indazol-5-yl}methylidene)-2,4-dioxo-1,3-thiazolidin-3-yl](piperidin-4-yl)acetic acid], 22 nM. `O=C1S/C(=C\c2ccc3c(cnn3Cc3ccc(Cl)cc3C(F)(F)F)c2)C(=O)N1Cc1ccccn1` [Compound 137, (5Z)-5-({1-[4-Chloro-2-(trifluoromethyl)benzyl]-1H-indazol-5-yl}methylidene)-3-(pyridin-2-ylmethyl)-1,3-thiazolidine-2,4-dione] gave an EC50 of 66 nM. To `O=C1S/C(=C\c2ccc3c(cnn3Cc3ccc(Cl)cc3C(F)(F)F)c2)C(=O)N1Cc1nccn1Cc1ncc[nH]1` [Compound 404, (5Z)-5-({1-[4-Chloro-2-(trifluoromethyl)benzyl]-1H-indazol-5-yl}methylidene)-3-{[1-(1H-imidazol-2-ylmethyl)-1H-imidazol-2-yl]methyl}-1,3-thiazolidine-2,4-dione] belongs 21 nM; to `[2H]C([2H])([2H])N1CCC(F)(CN2C(=O)S/C(=C\c3ccc4c(cnn4Cc4ccc(Cl)cc4C(F)(F)F)c3)C2=O)CC1` [Compound 307, (5Z)-5-({1-[4-Chloro-2-(trifluoromethyl)benzyl]-1H-indazol-5-yl}methylidene)-3-{[4-fluoro-1-(^2H3)methylpiperidin-4-yl]methyl}-1,3-thiazolidine-2,4-dione], 210 nM. To `O=C(O)c1ccc(CN2C(=O)S/C(=C\c3ccc4c(cnn4Cc4ccc(Cl)cc4C(F)(F)F)c3)C2=O)o1` [Compound 380, 5-{[(5Z)-5-({1-[4-Chloro-2-(trifluoromethyl)benzyl]-1H-indazol-5-yl}methylidene)-2,4-dioxo-1,3-thiazolidin-3-yl]methyl}furan-2-carboxylic acid] belongs 15 nM; to `O=C(O)CN1C(=O)S/C(=C\c2ccc3c(c2)c(-c2ccc(F)cc2)nn3Cc2ccc(Cl)cc2C(F)(F)F)C1=O` [Compound 408, [(5Z)-5-({1-[4-Chloro-2-(trifluoromethyl)benzyl]-3-(4-fluorophenyl)-1H-indazol-5-yl}methylidene)-2,4-dioxo-1,3-thiazolidin-3-yl]acetic acid], 153 nM.

By EC50 is commonly meant the midpoint of the concentration-response curve. Read a high EC50 as a need for much substance.
